System: platelets
Assay: Ex vivo platelet aggregation after oral administration
Type: in vivo, rat
Settings: 10, 1 or 0.1 mg/kg oral single dose, rats, blood 2 hours after administration, collagen 2 to 4 μg/ml
Procedure: Compound 2 in a dose of 10, 1 or 0.1 mg/kg was orally administered, as a single dose, to rats with the use of a probe needle. A solvent (physiological saline) was administered as a control.
The blood was withdrawn 2 hours after administration, and platelets were prepared from the blood. Platelet aggregation was induced by 2 to 4 μg/ml of collagen using the platelets. The preparation of platelets and the measurement of the aggregation rate were performed in the same manner as in Test Example 1.

Compound: CC/C=C\C/C=C\C/C=C\C/C=C\C/C=C\C/C=C\CCC(=O)NCCC1CCCN1C (racemic) [Compound 2, (4Z,7Z,10Z,13Z,16Z,19Z)-N-[2-(1-methylpyrrolidin-2-yl)ethyl]docosahexaenoamide]
- ex vivo platelet aggregation after oral administration (in words): potently suppressed

Source: patent US6949553B2, “Aliphatic compounds, their synthesis method, and utilization of the same” (Maruha Corporation, priority 2001, dated 2005)
